Molecules are shown by their SMILES.

For one experiment, the system named is KURAMOCHI
The experiment is described as follows: drug sensitivity score (DSS2) on cancer cell count; higher = more sensitive; extreme values may be limits of the assay. The following applies: 72 h. In short, it runs like this:
(§1)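 Ovarian cancer cells were grown alone or in 1:1 direct co-culture with lung or skin fibroblasts. They were plated onto 384-well plates pre-spotted acoustically with 528 approved and investigational compounds at 5 concentrations, then treated for 72 h. Cells were fixed, immunostained for CK8/18 with Hoechst, and imaged at 10× (4 fields) to count cancer cells. A drug sensitivity score (DSS2) was derived in Breeze from 4-parameter logistic fits, with screen quality checked by Z'.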

A further experiment relates to OVCAR8. The description is as above. The following applies: 72 h. In short, it runs like this: as §1
Setting [1] is: co-cultured fibroblast: BJHTERT.
The mark [2] stands for this setting: co-cultured fibroblast: none (monoculture).

Turning to `CO[C@H]1CC[C@H](N2C(=O)CNc3ncc(-c4ccc(C(C)(C)O)nc4)nc32)CC1` [CC-223], the drug sensitivity score was found to be 6.8 DSS with KURAMOCHI (setting [1]); 5.7 DSS with KURAMOCHI (co-cultured fibroblast: WI38); 4.7 DSS with KURAMOCHI (setting [2]); 5 DSS in the experiment on OVCAR8 (setting [1]); 1.6 DSS in the experiment with OVCAR8 (co-cultured fibroblast: WI38); 7.6 DSS in the experiment with OVCAR8 (setting [2]).
For the molecule `C[C@@H]1CCN(C(=O)CC#N)C[C@@H]1N(C)c1ncnc2[nH]ccc12` [Tofacitinib], the drug sensitivity score with KURAMOCHI (setting [1]) was 0 DSS; with KURAMOCHI (co-cultured fibroblast: WI38) it was 0 DSS; in the experiment on KURAMOCHI (setting [2]), 12.2 DSS; in the experiment on OVCAR8 (setting [1]), 0 DSS; with OVCAR8 (co-cultured fibroblast: WI38), 0 DSS; with OVCAR8 (setting [2]), 0 DSS.
For the molecule `CCN(CC)Cc1ccc2cc(COC(=O)Nc3ccc(C(=O)NO)cc3)ccc2c1` [Givinostat], the drug sensitivity score came to 8.6 DSS with KURAMOCHI (setting [1]); 7.4 DSS in the experiment with KURAMOCHI (co-cultured fibroblast: WI38); 6.1 DSS in the experiment on KURAMOCHI (setting [2]); 14.9 DSS with OVCAR8 (setting [1]); 8.5 DSS with OVCAR8 (co-cultured fibroblast: WI38); 8.8 DSS in the experiment with OVCAR8 (setting [2]).
Regarding `CC[C@@H]1C(=O)N(C)c2cnc(Nc3ccc(C(=O)N[C@H]4CC[C@H](N5CCN(CC6CC6)CC5)CC4)cc3OC)nc2N1C(C)C` [Volasertib], the drug sensitivity score with KURAMOCHI (setting [1]) was determined as 16.4 DSS; with KURAMOCHI (co-cultured fibroblast: WI38) it was 17.9 DSS; in the experiment on KURAMOCHI (setting [2]), 21.4 DSS; in the experiment with OVCAR8 (setting [1]) it was 26.5 DSS; with OVCAR8 (co-cultured fibroblast: WI38), 21.5 DSS; in the experiment with OVCAR8 (setting [2]), 24.7 DSS.
Take `Cn1ncc(Cl)c1-c1cc(C(=O)N[C@H](CN)Cc2ccc(F)c(F)c2)oc1Cl` [Uprosertib]: the drug sensitivity score in the experiment with KURAMOCHI (setting [1]) was 0.5 DSS; in the experiment on KURAMOCHI (co-cultured fibroblast: WI38), 4.4 DSS; in the experiment with KURAMOCHI (setting [2]), 2 DSS; in the experiment with OVCAR8 (setting [1]), 0.6 DSS; in the experiment on OVCAR8 (co-cultured fibroblast: WI38), 0 DSS; in the experiment with OVCAR8 (setting [2]), 0.1 DSS.
For the molecule `CN(C)CCOc1ccc(/C(=C(/CCCl)c2ccccc2)c2ccccc2)cc1` [Toremifene], the drug sensitivity score in the experiment with KURAMOCHI (setting [1]) was 2.1 DSS; in the experiment on KURAMOCHI (co-cultured fibroblast: WI38), 0.8 DSS; with KURAMOCHI (setting [2]), 2.3 DSS; in the experiment on OVCAR8 (setting [1]) it was 3.2 DSS; in the experiment with OVCAR8 (co-cultured fibroblast: WI38), 0 DSS; with OVCAR8 (setting [2]) it was 3.5 DSS.
Take `Cc1cc(Nc2cc(CN3CCOCC3)c3nc(C)c(Cc4ccc(Cl)cc4F)n3n2)n[nH]1` [Gandotinib]: the drug sensitivity score was 7.6 DSS in the experiment on KURAMOCHI (setting [1]); 3.7 DSS in the experiment with KURAMOCHI (co-cultured fibroblast: WI38); 4 DSS in the experiment on KURAMOCHI (setting [2]); 9 DSS in the experiment on OVCAR8 (setting [1]); 12.1 DSS with OVCAR8 (co-cultured fibroblast: WI38); 9.7 DSS in the experiment with OVCAR8 (setting [2]).
For `CC(C)[C@H](C(=O)Nc1ccc(C(=O)NO)cc1)c1ccccc1` [AR-42], the drug sensitivity score was 14 DSS in the experiment on KURAMOCHI (setting [1]); 15.8 DSS in the experiment on KURAMOCHI (co-cultured fibroblast: WI38); 12.3 DSS with KURAMOCHI (setting [2]); 17.8 DSS in the experiment with OVCAR8 (setting [1]); 15.3 DSS with OVCAR8 (co-cultured fibroblast: WI38); 18.8 DSS in the experiment with OVCAR8 (setting [2]).
For the molecule `CC(=O)[C@]1(O)Cc2c(O)c3c(c(O)c2[C@@H](O[C@H]2C[C@H](N)[C@H](O)[C@H](C)O2)C1)C(=O)c1ccccc1C3=O` [Idarubicin], the drug sensitivity score with KURAMOCHI (setting [1]) was 14.5 DSS; in the experiment with KURAMOCHI (co-cultured fibroblast: WI38), 14.4 DSS; with KURAMOCHI (setting [2]), 27.8 DSS; in the experiment on OVCAR8 (setting [1]), 17.6 DSS; in the experiment with OVCAR8 (co-cultured fibroblast: WI38), 19.3 DSS; in the experiment on OVCAR8 (setting [2]), 22.1 DSS.
On to `COCC1(CO)C(=O)C2CCN1CC2` (centres undefined) [APR-246], for which the drug sensitivity score with KURAMOCHI (setting [1]), in the experiment with KURAMOCHI (co-cultured fibroblast: WI38), in the experiment on KURAMOCHI (setting [2]), in the experiment with OVCAR8 (setting [1]), in the experiment on OVCAR8 (co-cultured fibroblast: WI38) and with OVCAR8 (setting [2]) was 0 DSS each time.
As for `O=C(CCCCCCC(=O)Nc1ccccc1)NO` [Vorinostat], the drug sensitivity score worked out at 9.5 DSS in the experiment on KURAMOCHI (setting [1]); 9.7 DSS in the experiment on KURAMOCHI (co-cultured fibroblast: WI38); 5.5 DSS in the experiment with KURAMOCHI (setting [2]); 17.1 DSS in the experiment with OVCAR8 (setting [1]); 22.8 DSS in the experiment with OVCAR8 (co-cultured fibroblast: WI38); 9.4 DSS in the experiment on OVCAR8 (setting [2]).
Take `CN(C)C1CCN(C(=O)c2ccc(NC(=O)Nc3ccc(-c4nc(N5CCOCC5)nc(N5CCOCC5)n4)cc3)cc2)CC1` [Gedatolisib]: the drug sensitivity score was 16.8 DSS with KURAMOCHI (setting [1]); 16 DSS in the experiment on KURAMOCHI (co-cultured fibroblast: WI38); 21.3 DSS with KURAMOCHI (setting [2]); 8.7 DSS in the experiment on OVCAR8 (setting [1]); 2 DSS in the experiment with OVCAR8 (co-cultured fibroblast: WI38); 8.2 DSS with OVCAR8 (setting [2]).
As for `NC(=O)N1CCC(CC(=O)N2CCC([C@H]3c4ncc(Br)cc4CCc4cc(Cl)cc(Br)c43)CC2)CC1` [Lonafarnib], the drug sensitivity score with KURAMOCHI (setting [1]) worked out at 13 DSS; in the experiment with KURAMOCHI (co-cultured fibroblast: WI38), 13.9 DSS; in the experiment with KURAMOCHI (setting [2]) it was 13.2 DSS; with OVCAR8 (setting [1]), 14.5 DSS; with OVCAR8 (co-cultured fibroblast: WI38), 4.9 DSS; in the experiment on OVCAR8 (setting [2]), 10.3 DSS.
Turning to `CCN(CC)CCN(Cc1ccc(-c2ccc(C(F)(F)F)cc2)cc1)C(=O)Cn1c(SCc2ccc(F)cc2)nc(=O)c2c1CCC2` [Darapladib], the drug sensitivity score with KURAMOCHI (setting [1]) was determined as 0 DSS; in the experiment with KURAMOCHI (co-cultured fibroblast: WI38), 0 DSS; with KURAMOCHI (setting [2]), 0 DSS; in the experiment on OVCAR8 (setting [1]) it was 0 DSS; in the experiment on OVCAR8 (co-cultured fibroblast: WI38), 8.3 DSS; with OVCAR8 (setting [2]), 0.4 DSS.

The record behind these values is the supplement of paper PMC12420376.
